# ChEMBL document CHEMBL5506024, “Multitarget μ-Opioid Receptor Agonists─Neuropeptide FF Receptor Antagonists Induce Potent Antinociception with Reduced Adverse Side Effects” (J Med Chem, 2024)
# Active and inactive are the calls of the source. Numbered stars: 1 amine (or outer) side, 2 acyl side, 3 side chain; on linkers, the order of the positions; unused ones are H or OH. Square brackets hold non-standard residues; d marks the D form. Peptide text beside a SMILES is read from it. Nva(5-(4-Bn-piperidin-1-yl)) = N[C@@H](CCCN1CCC(Cc2ccccc2)CC1)C(=O)O; X1 = O=C1[C@@H](N[*:1])Cc2ccccc2CN1CCC(=O)[*:2]; Dmt = Cc1cc(O)cc(C)c1C[C@H](N)C(=O)O
# Key:
# [1] = Induction of motor coordination impairment in C57BL/6 mouse at 20 mg/kg, sc by rotarod assay; assay type: toxicity, organism-based; settings: in vivo
# Mu-type opioid receptor [2] = molecular target: T1, Mu-type opioid receptor (Homo sapiens, UniProt P35372); assay: Agonist activity at human MOP expressed in HEK293 cells coexpressing GloSensor-20F assessed as inhibition of forskolin-induced cAMP accumulation; assay type: functional, cell-based
# T1 sequence (P35372 whole entry): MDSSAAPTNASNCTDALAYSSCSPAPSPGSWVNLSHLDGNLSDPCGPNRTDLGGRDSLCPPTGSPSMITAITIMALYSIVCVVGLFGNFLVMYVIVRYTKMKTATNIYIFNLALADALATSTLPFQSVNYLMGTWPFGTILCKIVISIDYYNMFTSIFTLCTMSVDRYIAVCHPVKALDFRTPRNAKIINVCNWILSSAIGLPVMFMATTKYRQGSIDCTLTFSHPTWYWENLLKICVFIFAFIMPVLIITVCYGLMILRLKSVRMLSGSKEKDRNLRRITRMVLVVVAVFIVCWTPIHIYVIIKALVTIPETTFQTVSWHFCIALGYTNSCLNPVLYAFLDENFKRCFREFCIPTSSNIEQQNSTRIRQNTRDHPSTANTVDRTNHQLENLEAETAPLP
# Mu-type opioid receptor [3] = molecular target: T1, Mu-type opioid receptor; assay: Agonist activity at human MOP expressed in HEK293 cells coexpressing GloSensor-20F assessed as inhibition of forskolin-induced cAMP accumulation relative to control; assay type: functional, cell-based; settings: filed as agonist
# Mu-type opioid receptor [4] = molecular target: T1, Mu-type opioid receptor; assay: Agonist activity at human Rluc8-tagged MOP expressed in HEK293 cells coexpressing eYFP-tagged beta-arrestin-2 assessed as beta-arrestin-2 recruitment incubated for 5 mins by luminometer analysis; assay type: functional, cell-based; settings: hek293
# [5] = molecular target: T2, Neuropeptide FF receptor 1 (Homo sapiens, UniProt Q9GZQ6); assay: Displacement of [125I]-1DMeNPFF from human NPFFR1 expressed in CHO cell membrane at 0.5 uM incubated for 1 hr by Topcount counting method relative to control; assay type: cell membranes
# T2 sequence (Q9GZQ6 whole entry): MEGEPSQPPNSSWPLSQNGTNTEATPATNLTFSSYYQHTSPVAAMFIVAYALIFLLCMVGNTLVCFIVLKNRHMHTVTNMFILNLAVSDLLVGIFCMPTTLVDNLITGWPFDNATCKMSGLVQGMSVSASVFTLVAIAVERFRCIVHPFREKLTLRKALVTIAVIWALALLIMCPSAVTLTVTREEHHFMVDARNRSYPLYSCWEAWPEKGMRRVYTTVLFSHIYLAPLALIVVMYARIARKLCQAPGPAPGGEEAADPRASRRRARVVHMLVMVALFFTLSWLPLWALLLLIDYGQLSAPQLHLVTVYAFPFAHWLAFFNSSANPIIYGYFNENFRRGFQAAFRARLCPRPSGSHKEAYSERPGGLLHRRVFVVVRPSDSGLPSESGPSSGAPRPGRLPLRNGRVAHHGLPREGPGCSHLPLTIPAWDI
# [6] = molecular target: T2, Neuropeptide FF receptor 1; assay: Antagonist activity at human NPFFR1 expressed in CHO cell membrane assessed as inhibition of NPVF induced cAMP response at 5 uM incubated for 1 hr by Topcount counting method relative to control; assay type: functional, cell membranes; design: scale not given: the % may be the effect or the level left; settings: filed as antagonist
# [7] = molecular target: T3, Neuropeptide FF receptor 2 (Homo sapiens, UniProt Q9Y5X5); assay: Displacement of [125I]-1DMeNPFF from human NPFFR2 expressed in CHO cell membrane at 0.05 uM incubated for 1 hr by Topcount counting method relative to control; assay type: cell membranes; settings: filed as antagonist
# T3 sequence (Q9Y5X5 whole entry): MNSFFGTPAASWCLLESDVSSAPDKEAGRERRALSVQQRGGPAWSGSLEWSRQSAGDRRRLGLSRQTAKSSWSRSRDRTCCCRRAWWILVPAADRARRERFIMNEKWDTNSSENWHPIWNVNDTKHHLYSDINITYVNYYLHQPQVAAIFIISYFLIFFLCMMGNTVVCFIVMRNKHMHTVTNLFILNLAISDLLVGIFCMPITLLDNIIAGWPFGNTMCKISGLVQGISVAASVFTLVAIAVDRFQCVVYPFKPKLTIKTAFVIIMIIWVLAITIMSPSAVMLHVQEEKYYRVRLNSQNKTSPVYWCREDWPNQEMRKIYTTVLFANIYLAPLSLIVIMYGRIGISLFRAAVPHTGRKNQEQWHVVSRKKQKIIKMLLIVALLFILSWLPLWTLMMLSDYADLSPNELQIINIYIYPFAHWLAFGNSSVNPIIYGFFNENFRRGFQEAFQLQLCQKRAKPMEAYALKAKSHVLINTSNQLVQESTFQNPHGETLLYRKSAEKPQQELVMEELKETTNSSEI
# [8] = molecular target: T3, Neuropeptide FF receptor 2; assay: Antagonist activity at human NPFFR2 expressed in CHO cell membrane assessed as inhibition of NPVF induced cAMP response at 5 uM incubated for 1 hr by Topcount counting method relative to control; assay type: functional, cell membranes; design: scale not given: the % may be the effect or the level left; settings: filed as antagonist
# [9] = molecular target: T2, Neuropeptide FF receptor 1; assay: Displacement of [125I]-1DMeNPFF from human NPFFR1 expressed in CHO cell membrane incubated for 1 hr by Topcount counting method; assay type: cell membranes
# [10] = molecular target: T2, Neuropeptide FF receptor 1; assay: Antagonist potency at human NPFFR1 expressed in CHO cell membrane assessed as inhibition of NPVF induced cAMP response incubated for 1 hr by Topcount counting method; assay type: functional, cell membranes; settings: read-out: pA2 (converted)
# [11] = molecular target: T3, Neuropeptide FF receptor 2; assay: Displacement of [125I]-1DMeNPFF from human NPFFR2 expressed in CHO cell membrane incubated for 1 hr by Topcount counting method; assay type: cell membranes
# [12] = molecular target: T3, Neuropeptide FF receptor 2; assay: Antagonist potency at human NPFFR2 expressed in CHO cell membrane assessed as inhibition of NPVF induced cAMP response incubated for 1 hr by Topcount counting method; assay type: functional, cell membranes; settings: read-out: pA2 (converted)
# [13] = molecular target: Delta-type opioid receptor (Homo sapiens) (UniProt P41143); assay: Agonist activity at human DOP expressed in HEK293 cells assessed as inhibition of forskolin-induced cAMP accumulation; assay type: functional, cell-based; settings: filed as agonist
# Delta-type opioid receptor (Homo sapiens), sequence (P41143 whole entry): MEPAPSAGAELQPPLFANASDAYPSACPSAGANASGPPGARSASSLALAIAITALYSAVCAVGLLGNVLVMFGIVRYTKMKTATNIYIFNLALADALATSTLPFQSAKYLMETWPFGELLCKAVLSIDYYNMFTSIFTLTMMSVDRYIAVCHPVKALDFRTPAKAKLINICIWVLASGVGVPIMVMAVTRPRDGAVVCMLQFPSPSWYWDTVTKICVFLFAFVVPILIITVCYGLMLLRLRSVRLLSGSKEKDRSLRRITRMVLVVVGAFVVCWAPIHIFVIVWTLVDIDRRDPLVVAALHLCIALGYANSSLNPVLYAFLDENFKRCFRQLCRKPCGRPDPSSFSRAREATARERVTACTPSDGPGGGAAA
# [14] = molecular target: Kappa-type opioid receptor (Homo sapiens, UniProt P41145); assay: Partial agonist activity at human KOR expressed in HEK293 cells assessed as forskolin-induced cAMP accumulation in presence of IBMX; assay type: functional, cell-based; settings: filed as partial agonist
# Kappa-type opioid receptor, sequence (P41145 whole entry): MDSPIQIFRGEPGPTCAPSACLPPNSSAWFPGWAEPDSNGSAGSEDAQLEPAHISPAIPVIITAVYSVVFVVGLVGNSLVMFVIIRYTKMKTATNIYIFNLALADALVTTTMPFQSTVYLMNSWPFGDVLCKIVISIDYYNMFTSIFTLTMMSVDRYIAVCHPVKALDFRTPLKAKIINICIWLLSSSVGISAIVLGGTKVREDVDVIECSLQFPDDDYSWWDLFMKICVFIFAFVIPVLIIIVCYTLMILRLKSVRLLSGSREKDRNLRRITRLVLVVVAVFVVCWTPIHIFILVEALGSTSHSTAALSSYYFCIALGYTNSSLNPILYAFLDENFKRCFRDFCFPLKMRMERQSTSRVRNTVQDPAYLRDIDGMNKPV
# [15] = molecular target: Nociceptin receptor (Homo sapiens) (UniProt P41146); assay: Agonist activity at human NOR expressed in HEK293 cells assessed as forskolin-induced cAMP accumulation; assay type: functional, cell-based
# Nociceptin receptor (Homo sapiens), sequence (P41146 whole entry): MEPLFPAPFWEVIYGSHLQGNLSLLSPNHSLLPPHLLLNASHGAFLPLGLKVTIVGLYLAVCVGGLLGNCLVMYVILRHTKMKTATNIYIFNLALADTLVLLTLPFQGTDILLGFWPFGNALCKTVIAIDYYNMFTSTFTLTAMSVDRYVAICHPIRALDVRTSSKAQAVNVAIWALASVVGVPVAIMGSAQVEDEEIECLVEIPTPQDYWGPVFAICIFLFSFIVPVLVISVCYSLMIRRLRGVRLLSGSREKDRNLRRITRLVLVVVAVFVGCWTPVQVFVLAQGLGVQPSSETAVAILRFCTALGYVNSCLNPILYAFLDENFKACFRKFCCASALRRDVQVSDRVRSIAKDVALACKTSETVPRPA
# [16] = molecular target: T4, Prolactin-releasing peptide receptor (Homo sapiens) (UniProt P49683); assay: Agonist activity at human GPR10 expressed in CHO cells assessed as intracellular calcium release upto 10 uM by Fluo-4 AM dye based calcium mobilization assay; assay type: functional, cell-based
# T4 sequence (whole entry): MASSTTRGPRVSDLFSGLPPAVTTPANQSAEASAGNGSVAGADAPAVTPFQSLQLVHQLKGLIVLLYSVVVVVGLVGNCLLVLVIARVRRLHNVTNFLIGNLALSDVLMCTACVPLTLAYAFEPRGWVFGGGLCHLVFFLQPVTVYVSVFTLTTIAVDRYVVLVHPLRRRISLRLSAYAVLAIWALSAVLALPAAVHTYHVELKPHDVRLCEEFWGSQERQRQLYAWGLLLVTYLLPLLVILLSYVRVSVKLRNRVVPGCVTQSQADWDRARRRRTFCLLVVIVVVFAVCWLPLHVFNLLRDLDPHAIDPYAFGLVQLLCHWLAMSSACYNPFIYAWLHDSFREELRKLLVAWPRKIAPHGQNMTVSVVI
# [17] = molecular target: KiSS-1 receptor (Homo sapiens) (UniProt Q969F8); assay: Agonist activity at human GPR54 expressed in CHO cells assessed as intracellular calcium release upto 10 uM by Fluo-4 AM dye based calcium mobilization assay; assay type: functional, cell-based
# KiSS-1 receptor (Homo sapiens), sequence (Q969F8 whole entry): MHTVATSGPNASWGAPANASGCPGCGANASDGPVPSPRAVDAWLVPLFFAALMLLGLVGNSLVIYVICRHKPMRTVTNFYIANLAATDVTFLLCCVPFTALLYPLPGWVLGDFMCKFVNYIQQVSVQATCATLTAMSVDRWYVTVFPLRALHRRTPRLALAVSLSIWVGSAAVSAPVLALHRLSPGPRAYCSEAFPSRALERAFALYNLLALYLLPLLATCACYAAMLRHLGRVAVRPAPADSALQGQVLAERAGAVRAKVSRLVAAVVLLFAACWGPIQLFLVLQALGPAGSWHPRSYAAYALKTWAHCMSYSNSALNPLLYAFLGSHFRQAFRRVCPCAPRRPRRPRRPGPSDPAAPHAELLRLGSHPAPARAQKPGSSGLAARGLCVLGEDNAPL
# [18] = molecular target: T5, Pyroglutamylated RF-amide peptide receptor (Homo sapiens) (UniProt Q96P65); assay: Agonist activity at human GPR103 expressed in CHO cells assessed as intracellular calcium release upto 10 uM by Fluo-4 AM dye based calcium mobilization assay; assay type: functional, cell-based
# T5 sequence (whole entry): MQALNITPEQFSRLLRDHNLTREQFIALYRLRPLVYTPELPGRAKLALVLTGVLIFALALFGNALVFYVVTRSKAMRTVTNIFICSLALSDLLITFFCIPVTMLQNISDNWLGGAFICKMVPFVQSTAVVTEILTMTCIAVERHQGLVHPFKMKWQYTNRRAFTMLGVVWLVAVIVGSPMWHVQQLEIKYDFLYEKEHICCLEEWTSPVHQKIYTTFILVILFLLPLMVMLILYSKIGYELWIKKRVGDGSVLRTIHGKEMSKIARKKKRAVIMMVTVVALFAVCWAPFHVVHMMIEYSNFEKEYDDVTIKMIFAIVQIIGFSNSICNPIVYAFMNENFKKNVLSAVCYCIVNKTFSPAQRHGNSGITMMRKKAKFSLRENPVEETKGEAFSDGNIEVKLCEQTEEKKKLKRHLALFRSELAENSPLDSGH
# [19] = molecular target: T4, Prolactin-releasing peptide receptor (Homo sapiens); assay: Antagonist activity at human GPR10 expressed in CHO cells assessed as intracellular calcium release upto 10 uM by Fluo-4 AM dye based calcium mobilization assay; assay type: functional, cell-based
# [20] = molecular target: KiSS-1 receptor (Homo sapiens) (UniProt Q969F8); assay: Antagonist activity at human GPR54 expressed in CHO cells assessed as intracellular calcium release upto 10 uM by Fluo-4 AM dye based calcium mobilization assay; assay type: functional, cell-based
# [21] = molecular target: T5, Pyroglutamylated RF-amide peptide receptor (Homo sapiens); assay: Antagonist activity at human GPR103 expressed in CHO cells assessed as intracellular calcium release upto 10 uM by Fluo-4 AM dye based calcium mobilization assay; assay type: functional, cell-based
# [22] = Cmax in mouse at 10 mg/kg, sc measured upto 24 hrs by LC-MS/MS analysis; assay type: ADME, organism-based; settings: in vivo
# [23] = Tmax in mouse at 10 mg/kg, sc measured upto 24 hrs by LC-MS/MS analysis; assay type: ADME, organism-based; settings: in vivo
# [24] = Half life in mouse at 10 mg/kg, sc measured upto 24 hrs by LC-MS/MS analysis; assay type: ADME, organism-based; settings: in vivo
# [25] = Drug concentration in mouse plasma at 10 mg/kg, sc measured after 2 hrs by LC-MS/MS analysis; assay type: ADME, organism-based
# [26] = Drug metabolism in human plasma assessed as H-Dmt-D-Pro-OH formation measured upto 270 mins by LC-MS analysis; assay type: ADME, cell-free; settings: 4.5 h
# [27] = Drug metabolism in human plasma assessed as H-Aba-betaAla-Bpa-Phe-NH2 formation measured upto 270 mins by LC-MS analysis; assay type: ADME, cell-free; settings: 4.5 h
# Mus musculus [28] = assay: Antinociceptive activity in mouse at 2.5 to 10 mg/kg, sc measured after 6 hrs by tail immersion test; assay type: functional, organism-based; settings: dose 2.5-10 mg/kg
# Mus musculus [29] = assay: Antinociceptive activity in mouse at 10 mg/kg, sc measured after 6 hrs in presence of naloxone methiodide by tail immersion test; assay type: functional, organism-based
# Mus musculus [30] = assay: Antinociceptive activity in mouse at 4.2 umol/kg, sc measured after 6 hrs in presence of naloxone methiodide by tail immersion test; assay type: functional, organism-based; settings: dose 4.2 µmol/kg
# Mus musculus [31] = assay: Antinociceptive activity in mouse at 10 mg/kg, sc administered daily and measured on day 8; assay type: functional, organism-based
# Mus musculus [32] = assay: Antinociceptive activity in mouse assessed as basal nociceptive threshold at 10 mg/kg, sc administered daily and measured on day 2 to 7; assay type: functional, organism-based
# [33] = Induction of naltrexone-precipitated withdrawal syndrome in sc dosed C57BL/6N mouse assessed as somatic signs administered for 8 days followed by naltrexone addition on day 9 after 2 hrs post last dose and measured after 30 mins; assay type: toxicity, organism-based; settings: in vivo, 216.5 h, time 12990 min
# [34] = Induction of naltrexone-precipitated withdrawal syndrome in sc dosed C57BL/6N mouse assessed as vegetative signs administered for 8 days followed by naltrexone addition on day 9 after 2 hrs post last dose and measured after 30 mins; assay type: toxicity, organism-based; settings: in vivo, 216.5 h, time 12990 min
# [35] = Toxicity in sc dosed C57BL/6N mouse assessed as induction of respiratory depression by measuring decrease in pulmonary rate by plethysmography; assay type: organism-based; settings: in vivo
structure (smiles),measurement,setting,value
CN(C)CCC=C1c2ccccc2CCc2ccccc21 [AMITRIPTYLINE],Activity,[1],Toxic
Cc1cc(O)cc(C)c1C[C@H](N)C(=O)N1CCC[C@@H]1C(=O)N[C@H]1Cc2ccccc2CN(CCC(=O)N[C@@H](CCCN2CCC(Cc3ccccc3)CC2)C(=O)N[C@@H](Cc2ccccc2)C(N)=O)C1=O (H-[Dmt][dP][X1][Nva(5-(4-Bn-piperidin-1-yl))]F-NH2),EC50,Mu-type opioid receptor [2],8 nM
same,Emax,Mu-type opioid receptor [3],50%
same,EC50,Mu-type opioid receptor [4],Not Active
same,Activity,[5],33%
same,Activity,[6],75%
same,Activity,[7],72%
same,Activity,[8],46%
same,Ki,[9],1190 nM
same,Kb,[10],6310 nM
same,Ki,[11],29 nM
same,Kb,[12],380 nM
same,Activity,[13],Active
same,Activity,[14],Active
same,Activity,[15],inactive
same,Activity,[16],inactive
same,Activity,[17],inactive
same,Activity,[18],inactive
same,Activity,[19],inactive
same,Activity,[20],inactive
same,Activity,[21],inactive
same,Cmax,[22],345 nM
same,Tmax,[23],8.34 min
same,half-life,[24],16.8 min
same,concentration at 2 h,[25],10.7 nM
same,Drug metabolism,[26],Metabolite_Detected
same,Drug metabolism,[27],Metabolite_Detected
same,Activity,Mus musculus [28],Active
CN1CC[C@]23c4c5ccc(O)c4O[C@H]2[C@@H](O)C=C[C@H]3[C@H]1C5 [MORPHINE],Activity,Mus musculus [29],inactive
same,Activity,Mus musculus [30],inactive
same,Activity,Mus musculus [31],inactive
same,Activity,Mus musculus [32],inactive
same,Activity,[33],Toxic
same,Activity,[34],Toxic
same,Activity,[35],Dose-Dependent Effect
